Experimental findings from patent publication US10294246B2, “Substituted boronic acids and boronate esters as immunoproteasome inhibitors” (MERCK PATENT GMBH, priority 2014, dated 2019) are described below.

In assay [1] the target is human constitutive proteasome (Beta5) (Homo sapiens (Human), UniProt P28074). Nature of the assay: Determination of Beta5 activity (fluorescence intensity assay, Suc-LLVY-AMC). The format is biochemical. The note with it: purified human constitutive proteasome 1.25 nM, Suc-LLVY-AMC 40 μM. The essentials:
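Purified constitutive proteasome (1.25 nM) was preincubated with compounds 20 min at 25 °C in 50 mM Tris pH 7.4, 0.03% SDS, 1 mM EDTA, 1% DMSO. Suc-LLVY-AMC (40 μM) was then added for 60 min at 37 °C. AMC fluorescence was read at ex 350/em 450 nm.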

The target of assay [2] is human immunoproteasome (LMP7) (Homo sapiens (Human), UniProt P28062). Nature of the assay: Determination of LMP7 activity (fluorescence intensity assay, Suc-LLVY-AMC). The format is biochemical. The note with it: for Selectivity LMP7 vs Beta5: LMP7 versus Beta5; for IC50: purified human immunoproteasome 0.25 nM, Suc-LLVY-AMC 40 μM. The method in brief:
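0.25 nM purified human immunoproteasome preincubated 20 min at 25 °C with serially diluted compounds in 50 mM Tris pH 7.4, 0.03% SDS, 1 mM EDTA, 1% DMSO. Reaction started with 40 μM Suc-LLVY-AMC, run 60 min at 37 °C. Fluorescence read at ex 350/em 450 nm.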

Each structure is given as a SMILES string. A value given as a limit tells only on which side of the number the result lay.

`O=C(Cc1ccccc1OCCCO)N[C@@H](Cc1coc2ccccc12)B(O)O` [Compound No. 55, [(1R)-2-(benzofuran-3-yl)-1-[[2-[2-(3-hydroxypropoxy)phenyl]acetyl]-amino]ethyl]boronic acid]: the concentration for half-maximal inhibition (IC50) in assay [1] lay within 500 to 5000 nM. Besides, in assay [2], the “Selectivity LMP7 vs Beta5” value is “++++ (70 ≤ Selectivity < 100)” and the IC50 is below 50 nM.

`COc1ccc(CC(=O)N[C@@H](Cc2coc3ccccc23)B(O)O)c(OC)c1OC` [Compound No. 60, [(1R)-2-(benzofuran-3-yl)-1-[[2-(2,3,4-trimethoxyphenyl)acetyl]amino]-ethyl]boronic acid] returned an IC50 in assay [1] of 50 to 500 nM. Further, in assay [2], the “Selectivity LMP7 vs Beta5” value is on record as “++++ (70 ≤ Selectivity < 100)” and the IC50 is below 50 nM.

Compound `O=C(Cc1ccccc1-c1ccccc1)N[C@@H](Cc1coc2ccccc12)B(O)O` [Compound No. 98, [(1R)-2-(benzofuran-3-yl)-1-[[2-(2-phenylphenyl)acetyl]amino]-ethyl]boronic acid] came in with an IC50 in assay [1] of 500 to 5000 nM. Further, in assay [2], the “Selectivity LMP7 vs Beta5” value is recorded as “++++ (70 ≤ Selectivity < 100)” and the 50% inhibitory concentration (IC50) is below 50 nM.

In the case of `CCOc1ccc(CC(=O)N[C@@H](Cc2coc3c(Cl)cccc23)B(O)O)nc1` [Compound No. 113, [(1R)-2-(7-chlorobenzofuran-3-yl)-1-[[2-(5-ethoxy-2-pyridyl)acetyl]amino]ethyl]boronic acid], the IC50 in assay [1] was 500 to 5000 nM. In addition, in assay [2], the “Selectivity LMP7 vs Beta5” value was “+++++ (Selectivity ≥ 100)” and the IC50 is below 50 nM.

In turn, `COCc1ccccc1CC(=O)N[C@@H](Cc1coc2ccccc12)B(O)O` [Compound No. 48, [(1R)-2-(benzofuran-3-yl)-1-[[2-[2-(methoxymethyl)phenyl]acetyl]-amino]ethyl]boronic acid] displayed an IC50 in assay [1] of 500 to 5000 nM. Besides, in assay [2], the “Selectivity LMP7 vs Beta5” value was “+++++ (Selectivity ≥ 100)” and the IC50 is below 50 nM.

In turn, `Cc1cccc2c1OCC2C[C@H](NC(=O)Cc1ccccc1)B(O)O` (stereo partly drawn) [Compound No. 77, [(1R)-2-(7-methyl-2,3-dihydrobenzofuran-3-yl)-1-[(2-phenylacetyl)-amino]ethyl]boronic acid] registered an IC50 in assay [1] of 500 to 5000 nM. In assay [2], the “Selectivity LMP7 vs Beta5” value is given as “+++++ (Selectivity ≥ 100)” and the half-inhibitory concentration (IC50) was below 50 nM.

As for `Cc1ccc(C[C@H](NC(=O)Cc2ccc(NS(C)(=O)=O)cc2)B(O)O)c(C)c1` [Compound No. 46, [(1R)-2-(2,4-dimethylphenyl)-1-[[2-[4-(methanesulfonamido)phenyl]-acetyl]amino]ethyl]boronic acid], the IC50 in assay [1] was above 5000 nM; in assay [2], 50 to 500 nM. For the same compound, in assay [2], the “Selectivity LMP7 vs Beta5” value is reported as “++++ (70 ≤ Selectivity < 100)”.

The compound `Cc1cccc2c(C[C@@H](NC(=O)[C@H](CO)c3ccccc3)B(O)O)coc12` [Compound No. 80, [(1S)-1-[[(2S)-3-hydroxy-2-phenyl-propanoyl]amino]-2-(7-methylbenzofuran-3-yl)ethyl]boronic acid] yielded an IC50 in assay [1] above 5000 nM. In addition, in assay [2], the “Selectivity LMP7 vs Beta5” value is “+++++ (Selectivity ≥ 100)” and the IC50 was 50 to 500 nM.

The compound `COc1ccc(CC(=O)N[C@@H](C[C@H]2COc3c(C)cccc32)B(O)O)cc1` [Compound No. 88, [(1R)-1-[[2-(4-methoxyphenyl)acetyl]amino]-2-[(3R)-7-methyl-2,3-dihydrobenzofuran-3-yl]ethyl]boronic acid] came in with an IC50 in assay [1] above 5000 nM. In assay [2], the “Selectivity LMP7 vs Beta5” value is recorded as “+++++ (Selectivity ≥ 100)” and the IC50 fell in the range of 50 to 500 nM.

Regarding `O=C(N[C@H](Cc1coc2ccccc12)B(O)O)[C@@H](CO)c1ccccc1` [Compound No. 62, [(1S)-2-(benzofuran-3-yl)-1-[[(2R)-3-hydroxy-2-phenyl-propanoyl]-amino]ethyl]boronic acid], the IC50 in assay [1] is 500 to 5000 nM. In addition, in assay [2], the “Selectivity LMP7 vs Beta5” value is reported as “+++++ (Selectivity ≥ 100)” and the IC50 is below 50 nM.

As to `CC(=O)Nc1ccc(CC(=O)N[C@@H](Cc2ccc(C)cc2C)B(O)O)cc1` [Compound No. 38], the IC50 in assay [1] is 500 to 5000 nM; in assay [2], below 50 nM. Moreover, the “Selectivity LMP7 vs Beta5” value in assay [2] is recorded as “++++ (70 ≤ Selectivity < 100)”.

In assay [1], `O=C(CCOc1ccccc1)N[C@@H](C[C@@H]1COc2ccccc21)B(O)O` [Compound No. 136, [(1R)-2-[(3S)-2,3-dihydrobenzofuran-3-yl]-1-(3-phenoxypropanoylamino)ethyl]boronic acid] registered an IC50 of 50 to 500 nM. In assay [2], the “Selectivity LMP7 vs Beta5” value is on record as “+++++ (Selectivity ≥ 100)” and the IC50 is below 50 nM.

With `O=C(Cc1ccccc1)N[C@@H](Cc1c(Cl)oc2ccccc12)B(O)O` [Compound No. 73, [(1R)-2-(2-chlorobenzofuran-3-yl)-1-[(2-phenylacetyl)amino]ethyl]-boronic acid], in assay [1], the IC50 was above 5000 nM. Further, in assay [2], the “Selectivity LMP7 vs Beta5” value is listed as “+++ (50 ≤ Selectivity < 70)” and the IC50 lay in the range of 50 to 500 nM.

In assay [1], `O=C(Cc1ccncc1)N[C@@H](Cc1coc2ccccc12)B(O)O` [Compound No. 19, [(1R)-2-(benzofuran-3-yl)-1-[[2-(4-pyridyl)acetyl]amino]ethyl]boronic acid] came in with an IC50 of 500 to 5000 nM. In assay [2], the “Selectivity LMP7 vs Beta5” value was “+++ (50 ≤ Selectivity < 70)” and the IC50 was below 50 nM.

In turn, `COc1ccc(CC(=O)N[C@@H](Cc2coc3c(C)cccc23)B(O)O)cc1` [Compound No. 82, [(1R)-1-[[2-(4-methoxyphenyl)acetyl]amino]-2-(7-methylbenzofuran-3-yl)ethyl]boronic acid] had an IC50 in assay [1] of 500 to 5000 nM. In addition, in assay [2], the “Selectivity LMP7 vs Beta5” value is reported as “+++++ (Selectivity ≥ 100)” and the IC50 is below 50 nM.

In assay [1], `Cc1ccc(C[C@H](NC(=O)C2(c3ccccc3)CC2)B(O)O)c(C)c1` [Compound No. 36, [(1R)-2-(2,4-dimethylphenyl)-1-[(1-phenylcyclopropanecarbonyl)-amino]ethyl]boronic acid] displayed an IC50 above 5000 nM. Further, in assay [2], the “Selectivity LMP7 vs Beta5” value is reported as “+ (Selectivity < 10)” and the IC50 lay within 500 to 5000 nM.

On to `COc1ccc(CC(=O)N[C@@H](C[C@@H]2COc3c(OC)cccc32)B(O)O)cc1` [Compound No. 120, [(1R)-2-[(3S)-7-methoxy-2,3-dihydrobenzofuran-3-yl]-1-[[2-(4-methoxyphenyl)acetyl]amino]ethyl]boronic acid], for which the IC50 was 500 to 5000 nM in assay [1] and below 50 nM in assay [2]. For the same compound, the “Selectivity LMP7 vs Beta5” value in assay [2] is listed as “+++++ (Selectivity ≥ 100)”.

Regarding `O=C(Cc1cnccn1)N[C@@H](Cc1coc2ccccc12)B(O)O` [Compound No. 18, [(1R)-2-(benzofuran-3-yl)-1-[(2-pyrazin-2-ylacetyl)amino]ethyl]boronic acid], the IC50 in assay [1] lay in the range of 50 to 500 nM. Moreover, in assay [2], the “Selectivity LMP7 vs Beta5” value was “++ (10 ≤ Selectivity < 50)” and the IC50 was below 50 nM.

The compound `O=C(Cc1ccccc1)N[C@@H](CC1COc2ccccc21)B(O)O` (stereo partly drawn) [Compound No. 74, [(1R)-2-(2,3-dihydrobenzofuran-3-yl)-1-[(2-phenylacetyl)amino]-ethyl]boronic acid] yielded a concentration for half-maximal inhibition (IC50) in assay [1] of 500 to 5000 nM. In assay [2], the “Selectivity LMP7 vs Beta5” value is reported as “+++++ (Selectivity ≥ 100)” and the IC50 was below 50 nM.

On to `O=C(Cc1ccccc1)NC(Cc1coc2c(F)cccc12)B(O)O` (stereo not drawn) [Compound No. 121, [2-(7-fluorobenzofuran-3-yl)-1-[(2-phenylacetyl)amino]ethyl]boronic acid], for which the IC50 is 500 to 5000 nM in assay [1] and below 50 nM in assay [2]. Moreover, the “Selectivity LMP7 vs Beta5” value in assay [2] is reported as “+++++ (Selectivity ≥ 100)”.

Take `O=C(Cc1ccccc1)N[C@@H](C[C@@H]1COc2c(Cl)cccc21)B(O)O` [Compound No. 132, [(1R)-2-[(3S)-7-chloro-2,3-dihydrobenzofuran-3-yl]-1-[(2-phenylacetyl)amino]ethyl]boronic acid]: the concentration for half-maximal inhibition (IC50) in assay [1] fell in the range of 500 to 5000 nM. In assay [2], the “Selectivity LMP7 vs Beta5” value was “+++++ (Selectivity ≥ 100)” and the IC50 was below 50 nM.

`Cc1cccc2c(C[C@H](NC(=O)[C@H](CO)c3ccccc3)B(O)O)coc12` [Compound No. 79, [(1R)-1-[[(2S)-3-hydroxy-2-phenyl-propanoyl]amino]-2-(7-methylbenzofuran-3-yl)ethyl]boronic acid] registered an IC50 in assay [1] of 500 to 5000 nM. In addition, in assay [2], the “Selectivity LMP7 vs Beta5” value is listed as “+++++ (Selectivity ≥ 100)” and the IC50 is below 50 nM.

With `O=C(Cc1ccc(-c2ccccc2)cc1)N[C@H](Cc1coc2ccccc12)B(O)O` [Compound No. 69, [(1S)-2-(benzofuran-3-yl)-1-[[2-(4-phenylphenyl)acetyl]amino]ethyl]-boronic acid], the IC50 in assay [1] lay in the range of 500 to 5000 nM. Also, in assay [2], the “Selectivity LMP7 vs Beta5” value is “++ (10 ≤ Selectivity < 50)” and the IC50 was in the range of 50 to 500 nM.

For `Cc1ccc(C[C@H](NC(=O)CCOc2ccccc2)B(O)O)cc1` [Compound No. 4, [(1R)-1-(3-phenoxypropanoylamino)-2-(p-tolyl)ethyl]boronic acid], the IC50 is 50 to 500 nM in assay [1] and below 50 nM in assay [2]. Besides, the “Selectivity LMP7 vs Beta5” value in assay [2] is recorded as “++ (10 ≤ Selectivity < 50)”.

As to `Cc1ccc(C[C@H](NC(=O)Cc2c(C)cccc2C)B(O)O)c(C)c1` [Compound No. 35, [(1R)-2-(2,4-dimethylphenyl)-1-[[2-(2,6-dimethylphenyl)acetyl]amino]-ethyl]boronic acid], the figures for the IC50 in assay [1] and in assay [2] were 500 to 5000 nM and 50 to 500 nM, respectively. Moreover, the “Selectivity LMP7 vs Beta5” value in assay [2] is “++ (10 ≤ Selectivity < 50)”.
